`CCC(=O)NS(=O)(=O)c1ccc(NC(=O)Cc2ccc(C)c(Oc3cc(Cl)cc(C#N)c3)c2F)c(Cl)c1.[Na]`: the melting point (commonly the temperature of the solid-liquid transition) lay in the range of 158.8 to 162 °C.

`CCc1ccc(CC(=O)Nc2ccc(S(N)(=O)=O)cc2)cc1Oc1cc(Cl)cc(Br)c1Cl` [Compound I-35, 2-[3-(3-Bromo-2,5-dichloro-phenoxy)-4-ethyl-phenyl]-N-(4-sulfamoyl-phenyl)-acetamide]: the melting point is 206.9 to 209.9 °C.

The compound `COc1ccc(CC(=O)Nc2ccc(S(N)(=O)=O)cc2)cc1Oc1cc(C#N)cc(C(F)F)c1` [Compound I-92, 2-[3-(3-Cyano-5-difluoromethyl-phenoxy)-4-methoxy-phenyl]-N-(4-sulfamoyl-phenyl)-acetamide] came in with a melting point of 213.9 to 214.2 °C.

Regarding `Cc1cc(OCCCS(N)(=O)=O)ccc1NC(=O)Cc1ccc(Cl)c(Oc2cc(Cl)ccc2Br)c1` [Compound I-3, 2-[3-(2-Bromo-5-chloro-phenoxy)-4-chloro-phenyl]-N-[2-methyl-4-(3-sulfamoyl-propoxy)-phenyl]-acetamide], the melting point was in the range of 190.1 to 192.2 °C.

`COc1ccc(CC(=O)Nc2ccc(S(N)(=O)=O)cc2C)cc1Oc1cc(C#N)cc(C(F)F)c1` [Compound I-93, 2-[3-(3-Cyano-5-difluoromethyl-phenoxy)-4-methoxy-phenyl]-N-(2-methyl-4-sulfamoyl-phenyl)-acetamide] gave a melting point of 175 to 177.2 °C.

The compound `Cc1cc(S(=O)(=O)CC(=O)O)ccc1NC(=O)Cc1ccc(C)c(Oc2cc(Cl)cc(C#N)c2)c1` [Compound I-152, (4-{2-[3-(3-Chloro-5-cyano-phenoxy)-4-methyl-phenyl]-acetylamino}-3-methyl-benzenesulfonyl)-acetic acid] returned a melting point of 180.5 to 181.4 °C.

With `CCCCC(=O)NS(=O)(=O)c1ccc(NC(=O)Cc2ccc(Cl)c(Oc3cc(Cl)cc(C#N)c3)c2F)c(Cl)c1.[Na]`, the melting point was 157.6 to 159.2 °C.

As to `Cc1cc(CC(=O)Nc2ccc(S(N)(=O)=O)cc2C)cc(C(=O)c2cccc(Cl)c2)c1` [Compound I-260, 2-[3-(3-Chloro-benzoyl)-5-methyl-phenyl]-N-(2-methyl-4-sulfamoyl-phenyl)-acetamide], the melting point was 210.3 to 211.6 °C.

In turn, `CCc1ccc(CC(=O)Nc2ccc(S(N)(=O)=O)cc2)cc1Oc1cc(Cl)cc(Br)c1` [Compound I-22, 2-[3-(3-Bromo-5-chloro-phenoxy)-4-ethyl-phenyl]-N-(4-sulfamoyl-phenyl)-acetamide] gave a melting point of 216.1 to 221.3 °C.

In turn, `Cc1cc(S(=O)(=O)CCCO)ccc1NC(=O)Cc1ccc(C)c(Oc2cc(Cl)cc(C#N)c2)c1` [Compound I-157, 2-[3-(3-Chloro-5-cyano-phenoxy)-4-methyl-phenyl]-N-[4-(3-hydroxy-propane-1-sulfonyl)-2-methyl-phenyl]-acetamide] displayed a melting point of 78.9 to 79.5 °C.

`N#Cc1cc(C#N)cc(Oc2c(Cl)ccc(CC(=O)Nc3ccc(S(N)(=O)=O)cc3)c2F)c1` [Compound I-9, 2-[4-Chloro-3-(3,5-dicyano-phenoxy)-2-fluoro-phenyl]-N-(4-sulfamoyl-phenyl)-acetamide] displayed a melting point of 135.7 to 138.1 °C.

Turning to `Cc1cc(CC(=O)Nc2ccc(S(N)(=O)=O)cc2)cc(C(=O)c2ccc(Cl)cc2)c1` [Compound I-254, 2-[3-(4-Chloro-benzoyl)-5-methyl-phenyl]-N-(4-sulfamoyl-phenyl)-acetamide], the melting point fell in the range of 260.9 to 263.3 °C.

`CC(F)(F)c1cc(C#N)cc(Oc2c(Cl)ccc(CC(=O)Nc3ccc(S(N)(=O)=O)cc3Cl)c2F)c1` [Compound I-97, 2-{4-Chloro-3-[3-cyano-5-(1,1-difluoro-ethyl)-phenoxy]-2-fluoro-phenyl}-N-(2-chloro-4-sulfamoyl-phenyl)-acetamide] yielded a melting point of 192 to 197.6 °C.

`Cc1cc(S(N)(=O)=O)ccc1NC(=O)Cc1ccc(Cl)c(Oc2cc(C#N)cc(C#N)c2)c1F` [Compound I-32, 2-[4-Chloro-3-(3,5-dicyano-phenoxy)-2-fluoro-phenyl]-N-(2-methyl-4-sulfamoyl-phenyl)-acetamide] gave a melting point of 248.4 to 250.8 °C.
